Columns and labels:
[1] = tested on: C57/Bl6 mice subjected to chronic restraint stress (working memory deficit); assay: Y-maze alternation task after chronic restraint stress (CRS); type: in vivo; settings: 10 mg/kg i.p., acute, 30 min before testing, vs CRS vehicle
Experimental: Young Animals and chronic stress procedure: C57/Bl6 mice, males and females at 8 weeks old and are kept in normal housing conditions (12 h light ON cycle starting at 7 am/water and food ad libitum) for one week. During this week, animals are single housed and handled to reduce the anxiety-like response toward the experimenter. To induce a working memory deficit, mice are subjected to a chronic restraint stress protocol (CRS). They are placed in a 50 mL Falcon® tube, twice a day, for 1 hour during their diurnal cycle. The time of occurrence of the stress is randomized every day to avoid predictability. CRS is not applied on testing days. Y-maze test occurs 15 hours minimum after the last stressor.
Protocol: Mice are first habituated to the Y-maze apparatus and distal cues during 2 consecutive days over a 10 min free exploration session (one session per day). The next day, animals perform a training session consisting in seven successive trials separated by a 30 s inter-trial interval (ITI); during this training session, mice are familiarized with the experimental procedure (opening and closing of the doors and confinement into the goal arms). For each trial, mice remain in the start-box for a 30 s ITI. Then, the door is opened and the mouse is allowed to enter freely one of the two goal arms; the chosen arm is closed and the choice is recorded. After a 30 s confinement period into the chosen arm, the mouse is removed and brought back to the start-box for a second trial identical to the first one and this procedure is repeated over the series of trials.
The same general procedure used in the training session is implemented 24 h later, except that the ITI was lengthened to 90 s. For this experiment, animals are acutely injected i.p. with vehicle or drug, 30 minutes before the beginning of the test. To dissociate memory deficits from an eventual progressive loss of motivation to alternate over the series, an 8th trial is added to the series which is separated from the 7th trial by a shorter ITI (5 s). All animals failing to alternate at the 8th trial are excluded. The mean alternation rate is calculated and is expressed in percentage (number of alternation done by the animal/total number of alternation possible×100)±SEM. The percentage of alternation during the entire task is considered as an index of working memory performance (50% of being a random alternation rate). Factorial ANOVA is applied to the data to reveal differences between groups. If the ANOVA is significant for group effect (p<0.05), Scheffe post-hoc analysis are conducted to identify which groups are different from each other.
Drug preparation and administration: All drugs are diluted in a vehicle solution containing 85% H2O, 14% propylene glycol (Sigma Aldrich) and 1% Tween 80 (Sigma Aldrich). Working solutions are prepared at a concentration of 10 mg/mL and administered i.p. adjusted to the body weight of each animal. Doses used are either 1, 5, 10 or 20 mg/kg. For all Y maze experiments, animals are acutely injected i.p. with vehicle or drug, 30 minutes before the beginning of the test.

[2] = molecular target: T1, α5β3γ2 GABAA receptor (Homo sapiens, UniProt P18507+P31644); assay: Electrophysiology in transfected cells (IonWorks Barracuda), PAM effect on current induced by 5 μM GABA; type: cell-based
T1 construct: Full-length cDNAs for GABAA receptor subtypes are transfected into the human embryonic kidney cell line HEK-293T; expressed in transfected cells; host or cells: human mammalian cells (HEK-293T per Procedure B)
T1 sequence (P31644 32-462): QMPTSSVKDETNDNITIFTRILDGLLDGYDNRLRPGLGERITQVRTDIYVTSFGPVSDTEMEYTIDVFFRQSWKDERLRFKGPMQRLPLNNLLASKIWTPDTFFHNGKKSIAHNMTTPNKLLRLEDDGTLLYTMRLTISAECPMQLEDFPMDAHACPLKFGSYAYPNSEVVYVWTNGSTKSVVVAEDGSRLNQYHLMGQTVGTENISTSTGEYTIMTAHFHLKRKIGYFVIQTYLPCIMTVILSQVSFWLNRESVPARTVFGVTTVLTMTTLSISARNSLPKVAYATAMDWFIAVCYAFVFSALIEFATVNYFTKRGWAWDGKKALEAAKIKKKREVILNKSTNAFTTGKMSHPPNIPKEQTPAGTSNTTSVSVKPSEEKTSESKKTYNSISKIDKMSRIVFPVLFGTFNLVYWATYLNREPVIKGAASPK
T1 sequence (P28472 26-473 partner): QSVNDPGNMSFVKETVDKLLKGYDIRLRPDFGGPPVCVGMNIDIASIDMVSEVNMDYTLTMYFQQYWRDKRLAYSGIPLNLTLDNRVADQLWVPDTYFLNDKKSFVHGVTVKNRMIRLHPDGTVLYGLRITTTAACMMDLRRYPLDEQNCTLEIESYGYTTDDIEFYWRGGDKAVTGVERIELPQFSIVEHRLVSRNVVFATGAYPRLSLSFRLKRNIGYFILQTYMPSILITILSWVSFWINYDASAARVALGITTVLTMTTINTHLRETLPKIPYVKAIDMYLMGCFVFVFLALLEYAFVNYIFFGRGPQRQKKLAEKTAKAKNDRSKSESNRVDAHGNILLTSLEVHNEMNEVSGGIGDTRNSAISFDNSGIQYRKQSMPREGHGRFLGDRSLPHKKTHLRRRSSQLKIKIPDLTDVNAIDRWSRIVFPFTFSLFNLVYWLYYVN
T1 sequence (P18507 40-475): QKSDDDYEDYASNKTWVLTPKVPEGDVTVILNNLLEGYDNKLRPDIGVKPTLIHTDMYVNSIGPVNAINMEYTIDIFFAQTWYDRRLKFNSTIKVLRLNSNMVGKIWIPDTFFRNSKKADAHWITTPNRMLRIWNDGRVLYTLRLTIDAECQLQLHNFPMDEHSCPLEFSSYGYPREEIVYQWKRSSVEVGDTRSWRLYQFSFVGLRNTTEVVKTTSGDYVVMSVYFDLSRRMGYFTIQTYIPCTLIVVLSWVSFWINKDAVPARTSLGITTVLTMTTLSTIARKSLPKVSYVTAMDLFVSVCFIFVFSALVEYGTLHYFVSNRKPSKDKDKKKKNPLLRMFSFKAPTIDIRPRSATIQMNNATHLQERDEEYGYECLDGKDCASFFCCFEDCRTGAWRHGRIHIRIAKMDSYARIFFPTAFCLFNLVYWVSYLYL
Experimental: (§1) Procedure B: Full-length cDNAs for GABAA receptor subtypes are transfected into the human embryonic kidney cell line HEK-293T. All subtypes are rat clones except for α2, which is a human clone. Cells are patch-clamped at −50 mV in the whole-cell recording configuration. GABA is diluted into the bath and compounds are dissolved in DMSO and diluted into bath solution. Solutions containing GABA or GABA+ compounds are applied to cells for 5 s. Currents are recorded with an Axon 200B patch clamp amplifier. Data is normalized data current expressed as a percentage of the response to GABA alone for each cell.
(§2) Electrophysiological Characterization of GL-III-68 by Procedure B: Human mammalian cells are transfected with human […] GABAA receptors. Cells are incubated with GL-III-68 at a range of concentrations from 0.03 μM to 100 μM. Currents are induced by stimulation with 5 μM GABA and recorded using the IonWorks Barracuda® test platform. Current is normalized to the current induced by 5 μM of GABA in the absence of any allosteric modulator. PAM effect of at different subtypes of GABA^A receptor. % of current was calculated relatively to current produced by 5 μM GABA alone (set to 100%) (FIG. 21). EC50 results are shown below.

[3] = molecular target: T2, α2β3γ2 GABAA receptor (Homo sapiens, UniProt P18507+P47869); assay: as above; type: cell-based
T2 construct: Full-length cDNAs for GABAA receptor subtypes are transfected into the human embryonic kidney cell line HEK-293T; expressed in transfected cells; host or cells: human mammalian cells (HEK-293T per Procedure B)
T2 sequence (P47869 29-451): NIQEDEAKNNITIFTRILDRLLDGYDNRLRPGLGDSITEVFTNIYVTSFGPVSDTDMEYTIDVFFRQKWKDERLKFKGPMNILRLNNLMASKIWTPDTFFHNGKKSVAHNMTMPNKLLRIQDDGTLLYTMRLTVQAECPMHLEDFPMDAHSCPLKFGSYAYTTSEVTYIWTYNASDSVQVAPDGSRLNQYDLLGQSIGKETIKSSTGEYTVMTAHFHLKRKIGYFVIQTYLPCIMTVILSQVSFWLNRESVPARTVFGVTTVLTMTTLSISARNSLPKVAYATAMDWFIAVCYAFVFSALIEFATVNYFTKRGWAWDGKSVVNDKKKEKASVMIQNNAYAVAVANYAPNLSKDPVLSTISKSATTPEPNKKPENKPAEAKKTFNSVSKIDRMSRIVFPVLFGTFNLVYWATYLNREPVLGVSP
T2 sequence (P28472 26-473 partner): as the sequence (P28472 26-473 partner) above
T2 sequence (P18507 40-475): as the sequence (P18507 40-475) above
Experimental: as §1, §2

[4] = molecular target: T3, α1β3γ2 GABAA receptor (Homo sapiens, UniProt P14867+P18507); assay: as above; type: cell-based
T3 construct: Full-length cDNAs for GABAA receptor subtypes are transfected into the human embryonic kidney cell line HEK-293T; expressed in transfected cells; host or cells: human mammalian cells (HEK-293T per Procedure B)
T3 sequence (P14867 28-456): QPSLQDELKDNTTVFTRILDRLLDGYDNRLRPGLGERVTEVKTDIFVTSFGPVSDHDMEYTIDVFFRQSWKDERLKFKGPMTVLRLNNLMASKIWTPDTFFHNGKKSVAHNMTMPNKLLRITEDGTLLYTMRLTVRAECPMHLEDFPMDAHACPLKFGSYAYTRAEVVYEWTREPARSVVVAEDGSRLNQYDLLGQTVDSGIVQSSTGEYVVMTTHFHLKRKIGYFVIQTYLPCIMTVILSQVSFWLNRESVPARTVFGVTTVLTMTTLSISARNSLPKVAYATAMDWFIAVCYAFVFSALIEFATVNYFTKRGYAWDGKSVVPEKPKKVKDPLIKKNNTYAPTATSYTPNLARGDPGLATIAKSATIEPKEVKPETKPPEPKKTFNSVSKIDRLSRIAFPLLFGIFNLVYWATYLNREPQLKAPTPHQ
T3 sequence (P28472 26-473 partner): as the sequence (P28472 26-473 partner) above
T3 sequence (P18507 40-475): as the sequence (P18507 40-475) above
Experimental: as §1, §2

[5] = molecular target: T4, α3β3γ2 GABAA receptor (Homo sapiens, UniProt P18507+P34903); assay: as above; type: cell-based
T4 construct: Full-length cDNAs for GABAA receptor subtypes are transfected into the human embryonic kidney cell line HEK-293T; expressed in transfected cells; host or cells: human mammalian cells (HEK-293T per Procedure B)
T4 sequence (P34903 29-492): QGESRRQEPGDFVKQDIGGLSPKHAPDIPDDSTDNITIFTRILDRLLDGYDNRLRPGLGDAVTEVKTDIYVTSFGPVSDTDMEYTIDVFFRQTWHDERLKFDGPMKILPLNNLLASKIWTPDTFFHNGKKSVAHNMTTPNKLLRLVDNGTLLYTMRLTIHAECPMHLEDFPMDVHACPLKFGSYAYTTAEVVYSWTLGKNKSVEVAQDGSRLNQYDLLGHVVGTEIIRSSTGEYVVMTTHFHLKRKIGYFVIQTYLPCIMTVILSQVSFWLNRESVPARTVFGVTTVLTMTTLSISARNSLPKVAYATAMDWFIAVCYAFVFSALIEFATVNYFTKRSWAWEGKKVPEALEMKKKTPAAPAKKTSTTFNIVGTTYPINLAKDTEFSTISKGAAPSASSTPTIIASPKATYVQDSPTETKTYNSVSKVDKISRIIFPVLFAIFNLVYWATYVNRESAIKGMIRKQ
T4 sequence (P28472 26-473 partner): as the sequence (P28472 26-473 partner) above
T4 sequence (P18507 40-475): as the sequence (P18507 40-475) above
Experimental: as §1, §2

CCNC(=O)c1ncn2c1[C@@H](C)N=C(c1ccccc1F)c1cc(C3CC3)ccc1-2 [GL-III-68, (R)-8-Cyclopropyl-N-ethyl-6-(2-fluorophenyl)-4-methyl-4H-benzo[f]imidazo[1,5-a][1,4]diazepine-3-carboxamide]
reversal of CRS-induced reduction of alternation rate (Y-maze) [1]: reversed
EC50 [2]: < 0.03 µM
Emax ([2]; α5β3γ2, % of current produced by 5 μM GABA alone (set to 100%)): 188%
EC50 [3]: 1.91 µM
Emax ([3]; α2β3γ2, % of current produced by 5 μM GABA alone (set to 100%)): 224%
EC50 [4]: 10.7 µM
Emax ([4]; α1β3γ2, % of current produced by 5 μM GABA alone (set to 100%)): 188%
EC50 [5]: 3.52 µM
Emax ([5]; α3β3γ2, % of current produced by 5 μM GABA alone (set to 100%)): 209%
